Results: patent publication US8604206B2, “Compositions for preventing and/or treating degenerative disorders of the central nervous system” (Amicus Therapeutics, Inc., priority 2009, dated 2013)

Experiments:
[1] = biological target: GCase (Homo sapiens (Human), UniProt P04062); test: GCase activity enhancement (EC50, Emax) of Table 2B; type: cell-based; settings: for increase in GCase activity compared to IFG-tartrate: compared to reference compound IFG-tartrate
[2] = biological target: lysosomal GCase (Homo sapiens (Human), UniProt P04062); test: In situ lysosomal GCase inhibition and washout assay in fibroblasts from a normal subject; type: cell-based; settings: for in situ washout from the lysosomal compartment compared to IFG-tartrate: compared to reference compound IFG-tartrate; for in situ washout: fibroblasts treated at IC90, then drug-free medium; for IC50: fibroblasts, 16-24 hours with compound, PFBFDβGlu substrate
Procedure: The effect of the novel compounds of the present invention on lysosomal GCase activity was assayed in situ using fibroblasts established from a normal subject. Cells seeded in 48-well plates were incubated with the indicated concentrations of compound for 16-24 hours. For the dose-response assays, cells were incubated with the in situ substrate 5-(pentafluorobenzoylamino)fluorescein di-β-D-glucopyranoside (PFBFDβGlu) for 1 hour and subsequently lysed to determine the extent of substrate hydrolysis in the presence of compound. […] Inhibition was determined as the ratio of activity in the presence of compound to that in the absence of compound. […] Cells were washed extensively and incubated in drug-free medium to allow net compound efflux from cells. Cells were then tested for lysosomal GCase activity at 2 hour intervals over a total period of 8 hours following compound removal. The increase in activity over time was fitted with a single exponential function to determine the compound's washout time.

[3] = biological target: GCase (Mus musculus, UniProt P17439); test: GCase enhancement in tissues of orally dosed mice; type: in vivo; settings: 9 doses over 2 weeks; for GCase increase (fold): 24-hour washout; for GCase enhancement in brain and spleen: mice, p.o.
Procedure: The ability of orally administered test compounds ((3R,4R,5S)-5-(difluoromethyl)piperidine-3,4-diol, (3R,4R,5S)-5-(1-fluoroethyl)piperidine-3,4-diol, (3R,4R,5S)-5-((R)-1-fluoropropyl)piperidine-3,4-diol hydrochloride, or (3R,4R,5S)-5-benzylpiperidine-3,4-diol) to elevate GCase levels was assessed in mice. For this purpose, 8-week old wild-type male mice (C57BL/6) were administered a […] p.o. (gavage) dose of a compound of the present invention (i.e., (3R,4R,5S)-5-(difluoromethyl)piperidine-3,4-diol, (3R,4R,5S)-5-(1-fluoroethyl)piperidine-3,4-diol, (3R,4R,5S)-5-((R)-1-fluoropropyl)piperidine-3,4-diol hydrochloride, or (3R,4R,5S)-5-benzylpiperidine-3,4-diol). The dosing solutions were prepared in water. Compounds were administered over 2 weeks as follows: week 1, Mon-Fri (On), Sat-Sun (Off); week 2, Mon-Thu (On); necropsy on Friday. Thus, a total of 9 doses (dosing solutions prepared fresh every day) were given to each mouse, with a 24-hour washout between the last dose and necropsy.
Plasma was collected by spinning blood at 2700 g for 10 minutes at 4° C. Liver, spleen, lung, and brain tissues were removed, washed in cold PBS, blotted dry, flash frozen on dry ice, and stored at −80° C. until analysis. GCase levels were measured by homogenizing approximately 50 mg tissue in 500 μL McIlvane (MI) buffer (100 mM sodium citrate, 200 mM sodium phosphate dibasic, 0.25% sodium taurocholate, and 0.1% Triton X-100, pH 5.2) at pH 5.2 for 3-5 seconds on ice with a micro homogenizer. Homogenates were then incubated at room temperature without and with 2.5 mM conduritol-B-epoxide (CBE) for 30 min. Finally, 3.7 mM 4-methylumbeliferryl-β-glucoside (4-MUG) substrate was added and incubated at 37° C. for 60 min. […] Fluorescence was measured on a plate reader for 1 sec/well using 355 nm excitation and 460 nm emission. Total protein was determined in lysates using the MicroBCA kit according to the manufacturer's instructions. A 4-methylumbelliferone (4-MU) standard curve ranging from 1.0 nM to 50 μM was run in parallel for conversion of raw fluorescence data to absolute GCase activity (in the presence and absence of CBE) and expressed as nanomoles of 4-MU released per milligram of protein per hour (nmol/mg protein/hr). GCase levels and protein levels were calculated using Microsoft Excel (Redmond, Wash.) and GraphPad Prism version 4.02.

[4] = Blood brain barrier penetration, plasma and brain levels after oral administration; type: in vivo, mouse; settings: mice, single 30 mg/kg (free base equivalent) p.o.
Procedure: For this purpose, 8-week old wild-type male mice (C57BL/6) were administered a single 30 mg/kg (free base equivalent) p.o. dose of reference or test compound by gavage (n=3 mice per time point). Dosing solutions were prepared in water. After dosing, mice were euthanized with CO2 at the following time points: 0-, 0.5-, 1-, and 4-hour post-dose. […] Similarly, brains were collected from each mouse. Plasma was derived by spinning whole blood at 2,700×g for 10 minutes at 4° C. followed by storage on dry ice. Whole brains were washed in cold PBS to remove contaminating blood, blotted dry, flash frozen on dry ice, and ultimately stored at −80° C. until analysis. To prepare brain samples for analysis, 50-100 mg of tissue was homogenized in […] of water/mg tissue. Samples were then clarified by centrifugation. Next, 25 μl of the brain homogenate supernatant or 25 μl of plasma were combined with 25 μl of acetonitrile:water (95/5). […] Samples were again clarified by centrifugation and 75 μl of the supernatant was combined with 75 μl of acetonitrile. Samples were then analyzed for compound levels by LC-MS/MS at PPD Inc. (3230 Deming Way, Middleton, Wis. 53562). In brief, a Thermo Betasil, Silica-100, 50×3 mm, 5μ column equilibrated with a mixture of mobile phase consisting of 5 mM ammonium formate and 0.05% formic acid in (A) 95:5 acetonitrile:water or (B) 70:20:10 methanol:water:acetonitrile was employed. Between 20 and 30 μl sample was injected for analysis. For calculating drug concentrations, raw data for plasma (ng/mL) and brain (ng/g) was converted to nM using the molecular weight of respective compounds and assuming 1 g of tissue is equivalent to 1 mL volume. Concentration as a function of time was plotted in GraphPad Prism version 4.02.

Chain of GCase (Homo sapiens (Human), UniProt P04062) (P04062 40-536): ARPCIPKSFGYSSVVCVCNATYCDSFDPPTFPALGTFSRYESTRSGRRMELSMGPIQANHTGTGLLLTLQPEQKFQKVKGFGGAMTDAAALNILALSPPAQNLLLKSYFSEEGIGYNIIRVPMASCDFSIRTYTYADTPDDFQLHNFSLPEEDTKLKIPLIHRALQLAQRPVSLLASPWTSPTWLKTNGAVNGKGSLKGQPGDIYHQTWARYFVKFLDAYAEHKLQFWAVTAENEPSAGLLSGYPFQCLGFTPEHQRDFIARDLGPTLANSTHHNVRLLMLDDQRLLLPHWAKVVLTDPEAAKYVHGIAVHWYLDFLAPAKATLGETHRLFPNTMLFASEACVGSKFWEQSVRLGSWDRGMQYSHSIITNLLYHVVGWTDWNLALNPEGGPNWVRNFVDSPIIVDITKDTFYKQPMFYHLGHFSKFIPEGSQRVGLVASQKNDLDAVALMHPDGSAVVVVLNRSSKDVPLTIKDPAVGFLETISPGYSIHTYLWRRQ
Chain of lysosomal GCase (P04062 40-536): as above
Chain of GCase (Mus musculus, UniProt P17439) (P17439 20-515 limits assumed): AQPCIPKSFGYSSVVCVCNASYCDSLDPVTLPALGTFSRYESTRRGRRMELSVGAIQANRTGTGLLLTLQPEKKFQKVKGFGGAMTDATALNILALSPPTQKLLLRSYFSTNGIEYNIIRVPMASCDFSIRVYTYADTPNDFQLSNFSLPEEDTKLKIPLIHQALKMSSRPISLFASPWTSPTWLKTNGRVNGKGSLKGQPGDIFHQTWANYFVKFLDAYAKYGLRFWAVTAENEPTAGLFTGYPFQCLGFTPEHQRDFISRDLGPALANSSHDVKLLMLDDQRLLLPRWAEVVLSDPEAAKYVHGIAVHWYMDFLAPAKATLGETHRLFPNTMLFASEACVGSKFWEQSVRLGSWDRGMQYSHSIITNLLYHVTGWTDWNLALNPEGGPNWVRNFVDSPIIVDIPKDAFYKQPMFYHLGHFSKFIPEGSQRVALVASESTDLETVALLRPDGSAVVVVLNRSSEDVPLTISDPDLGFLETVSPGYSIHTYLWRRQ

O[C@@H]1[C@@H](Cc2ccccc2)CNC[C@H]1O [(3R,4R,5S)-5-benzyl-piperidine-3,4-diol]
EC50 [1]: 180 ± 10 nM | increase in GCase activity compared to IFG-tartrate [1]: enhanced enzyme activity to the same maximum level as reference compound IFG-tartrate at much lower concentration | inhibition of GCase activity [2]: inhibited GCase activity | in situ washout from the lysosomal compartment compared to IFG-tartrate [2]: considerably faster than reference compound IFG-tartrate | in situ washout [2]: 1.2 ± 0.13 h | IC50 [2]: 1300 ± 323 nM | GCase increase (fold) ([3]; brain, 10 mg/kg FBE p.o.): 1.2 fold | GCase increase (fold) ([3]; brain, 100 mg/kg FBE p.o.): 1.4 fold | GCase enhancement in brain and spleen [3]: significant GCase enhancement in brain and spleen | GCase increase (fold) ([3]; spleen, 10 mg/kg FBE p.o.): 1.0 fold | GCase increase (fold) ([3]; spleen, 100 mg/kg FBE p.o.): 1.2 fold | blood brain barrier crossing compared to IFG-tartrate [4]: crossed the blood brain barrier more readily as compared to IFG-tartrate | levels detected in brain compared to IFG-tartrate [4]: higher levels

Cl.O[C@H]1[C@H](O)CNC[C@@H]1C(F)F [Cmpd 6, (3R,4R,5S)-5-(Difluoromethyl)piperidine 3,4-diol Hydrochloride]
increase in GCase activity compared to IFG-tartrate [1]: enhanced enzyme activity to the same maximum level as reference compound IFG-tartrate at much lower concentration | inhibition of GCase activity [2]: inhibited GCase activity | in situ washout from the lysosomal compartment compared to IFG-tartrate [2]: considerably faster than reference compound IFG-tartrate | in situ washout [2]: 2.1 ± 0.30 h | GCase enhancement in brain and spleen [3]: significant GCase enhancement in brain and spleen | blood brain barrier crossing compared to IFG-tartrate [4]: crossed the blood brain barrier more readily as compared to IFG-tartrate | levels detected in brain compared to IFG-tartrate [4]: higher levels

CC[C@@H](F)[C@H]1CNC[C@@H](O)[C@@H]1O.Cl [(3R,4R,5S)-5-((R)-1-fluoropropyl)-piperidine-3,4-diol hydrochloride]
EC50 [1]: 86 ± 2 nM | increase in GCase activity compared to IFG-tartrate [1]: enhanced enzyme activity to the same maximum level as reference compound IFG-tartrate at much lower concentration | inhibition of GCase activity [2]: inhibited GCase activity | IC50 [2]: 972 ± 201 nM | GCase increase (fold) ([3]; brain, 10 mg/kg FBE p.o.): 0.9 fold | GCase increase (fold) ([3]; brain, 100 mg/kg FBE p.o.): 1.1 fold | GCase increase (fold) ([3]; spleen, 10 mg/kg FBE p.o.): 0.7 fold | GCase increase (fold) ([3]; spleen, 100 mg/kg FBE p.o.): 0.7 fold | blood brain barrier crossing compared to IFG-tartrate [4]: crossed the blood brain barrier more readily as compared to IFG-tartrate | levels detected in brain compared to IFG-tartrate [4]: higher levels
